In BigSolDB 2.1:

Nc1ccc(Oc2ccc(N)cc2)cc1
solubility (mole fraction)
Details	283.15 K	288.15 K	293.15 K	298.15 K	303.15 K	308.15 K	313.15 K	318.15 K	323.15 K
in 2-ethoxyethanol	0.0274	0.0288	0.0306	0.0329	0.0358	0.0394	0.0436	0.0486	0.0544
in DMAc	0.133	0.136	0.139	0.143	0.147	0.152	0.156	0.162	0.168
in DMF	0.104	0.107	0.11	0.115	0.12	0.126	0.132	0.138	0.145
in DMSO	–	–	–	0.153	0.159	0.165	0.172	0.179	0.187
in ethanol	0.000434	0.000549	0.0007	0.00089	0.00113	0.00143	0.00176	0.00217	0.0027
in methanol	0.00114	0.00132	0.00153	0.00178	0.00208	0.00246	0.00293	0.00349	0.00416
